{"source": "patent US20090318469A1", "about": "“Use of Flibanserin for the Treatment of Sexual Disorders in Females” (Boehringer Ingelheim International GmbH, priority 2006, published 2009)", "key": {"[1]": {"tested_on": "Sexual Disorders and/or Dysfunctions", "experiment": "studies of female patients suffering from Sexual Disorders", "assay_type": "in vivo", "details": "free base or acceptable derivative, qualitative"}, "5-HT2-receptor": {"tested_on": "5-HT2-receptor", "details": "background statement, qualitative; cited from earlier work"}, "5-HT1A receptor": {"molecular_target": "T1, 5-HT1A receptor (Homo sapiens, UniProt P08908)", "T1 sequence (P08908 1-422)": "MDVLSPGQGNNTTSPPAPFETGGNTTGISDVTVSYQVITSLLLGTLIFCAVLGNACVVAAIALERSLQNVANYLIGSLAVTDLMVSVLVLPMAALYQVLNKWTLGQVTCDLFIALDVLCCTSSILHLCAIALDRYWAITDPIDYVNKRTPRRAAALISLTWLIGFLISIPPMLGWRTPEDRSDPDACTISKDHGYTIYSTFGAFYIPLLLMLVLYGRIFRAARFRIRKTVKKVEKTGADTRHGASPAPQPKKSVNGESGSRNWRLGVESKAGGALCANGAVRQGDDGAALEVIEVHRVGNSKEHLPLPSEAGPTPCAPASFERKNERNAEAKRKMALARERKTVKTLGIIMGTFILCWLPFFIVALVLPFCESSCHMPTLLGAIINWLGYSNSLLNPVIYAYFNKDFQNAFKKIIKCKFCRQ", "details": "background statement, qualitative; cited from earlier work"}}, "data": [{"smiles": "O=c1[nH]c2ccccc2n1CCN1CCN(c2cccc(C(F)(F)F)c2)CC1", "note": "[Flibanserin, 1-[2-(4-(3-trifluoromethyl-phenyl)piperazin-1-yl)ethyl]-2,3-dihydro-1H-benzimidazol-2-one]", "values": [{"measurement": "effect on Sexual Disorders and/or Dysfunctions", "setting": "[1]", "value": "positive effect"}, {"measurement": "affinity for the 5-HT2-receptor", "setting": "5-HT2-receptor", "value": "shows affinity"}, {"measurement": "affinity for the 5-HT1A receptor", "setting": "5-HT1A receptor", "value": "shows affinity"}]}]}
